What was measured:
Fischer-Ratten = assay: Rat tail skin transplantation, Lewis donor to Fischer recipient: graft survival time; type: in vivo; details: d0-9, mean ± s of 5 animals
Description: (§1) In einem Experimentalansatz wurden Schwanzhautstückchen von Lewis Ratten mit einer Größe von etwa 0.5 x 1.0 cm auf den Schwanz von Fischer Ratten verpflanzt. In einem weiteren Modell wurde die Schwanzhaut von DA Ratten auf Lewis Ratten transplantiert. Die transplantierten Hautstücke werden vom Immunsystem der Empfängertiere als fremd erkannt und abgestoßen. Wie in Tabelle I zu sehen ist, betrug die Transplantüberlebenszeit im Lewis-Fischer-Rattenmodell in den Kontrollgruppen, die nur mit dem Lösungsmittel behandelt wurden zwischen 16 und 18 Tagen. Die Verbindung der Formel I mit R₁ = H wurde in verschiedenen Konzentrationen (1, 5, 10, 20 und 40 mg/kg Körpergewicht pro Injektion) an 10 aufeinanderfolgenden Tagen, beginnend mit dem Tag der Transplantation, entweder oral oder intraperitoneal verabreicht. Hierbei zeigt sich, daß sich durch verschiedene Konzentrationen der Substanz die Überlebenszeiten der Transplantate dosisabhängig von 15.8 ± 2.4 auf 26.8 ± 1.3 bzw. 18.4 ± 1.5 auf 28.4 ± 1.1 erhöhen ließen, wobei 10 mg/kg eine optimal wirksame Dosis zu sein scheinen.

Lewis Ratten = assay: Rat tail skin transplantation, DA donor to Lewis recipient: graft survival time; type: in vivo; details: d0-9, mean ± s of 5 animals, * p 0.001
Description: as §1
Auch im anderen Transplantationsmodell mit DA Ratten (Spender) und Lewis Ratten (Empfänger) kommt es zu einer Verlängerung der Transplantatüberlebenszeiten durch die Gabe von Homopiperazinen. Hier stoßen die nur mit dem Lösungsmittel behandelten Kontrolltiere das Transplantat ca. am Tag 12 ab. Durch die Behandlung (p.o. oder i.p. […]

CC(C)(C)c1cc(C(=O)N2CCCNCC2)cc(C(C)(C)C)c1O [Verbindung der Formel I mit R¹ = H]
Tage bis zur Abstoßung (x ± s) (Fischer-Ratten; 1 mg/kg, 10xip): (22.8 ± 2.2) Tage
Tage bis zur Abstoßung (x ± s) (Fischer-Ratten; 1 mg/kg, 10xpo): (21.6 ± 1.3) Tage
Tage bis zur Abstoßung (x ± s) (Fischer-Ratten; 5 mg/kg, 10xip): (25.0 ± 2.6) Tage
Tage bis zur Abstoßung (x ± s) (Fischer-Ratten; 5 mg/kg, 10xpo): (25.2 ± 0.8) Tage
Tage bis zur Abstoßung (x ± s) (Fischer-Ratten; 10 mg/kg, 10xip): (26.8 ± 1.3) Tage
Tage bis zur Abstoßung (x ± s) (Fischer-Ratten; 10 mg/kg, 10xip, listed as Verbindung der Formel I mit R₁ = H): 26.8 ± 1.3 Tage
Tage bis zur Abstoßung (x ± s) (Fischer-Ratten; 10 mg/kg, 10xpo): (28.4 ± 1.1) Tage
Tage bis zur Abstoßung (x ± s) (Fischer-Ratten; 10 mg/kg, 10xpo, listed as Verbindung der Formel I mit R₁ = H): 28.4 ± 1.1 Tage
Tage bis zur Abstoßung (x ± s) (Fischer-Ratten; 20 mg/kg, 10xip): (25.2 ± 1.6) Tage
Tage bis zur Abstoßung (x ± s) (Fischer-Ratten; 20 mg/kg, 10xpo): (26.8 ± 0.8) Tage
Tage bis zur Abstoßung (x ± s) (Fischer-Ratten; 40 mg/kg, 10xip): (22.4 ± 2.4) Tage
Tage bis zur Abstoßung (x ± s) (Fischer-Ratten; 40 mg/kg, 10xpo): (24.6 ± 2.0) Tage
Tage bis zur Abstoßung (x ± s) (Lewis Ratten; 5 mg/kg, 5xip): (16.0 ± 1.2)* Tage
Tage bis zur Abstoßung (x ± s) (Lewis Ratten; 10 mg/kg, 5xip): (16.6 ± 1.8)* Tage
Tage bis zur Abstoßung (x ± s) (Lewis Ratten; 10 mg/kg, 10xpo): (16.6 ± 0.6)* Tage
Tage bis zur Abstoßung (x ± s) (Lewis Ratten; 25 mg/kg, 5xip): (17.8 ± 0.8)* Tage
Tage bis zur Abstoßung (x ± s) (Lewis Ratten; 25 mg/kg, 10xpo): (17.4 ± 0.6)* Tage
Tage bis zur Abstoßung (x ± s) (Lewis Ratten; 50 mg/kg, 5xip): (19.6 ± 1.8)* Tage
Tage bis zur Abstoßung (x ± s) (Lewis Ratten; 50 mg/kg, 10xpo): (18.6 ± 1.1)* Tage

Reference: patent publication EP0363836A2, “Use of homopiperazines in the preparation of a medicament for preventing or treating organ rejection reactions” (BEHRINGWERKE Aktiengesellschaft, priority 1988, dated 1990)
